Calls of active or inactive are those of the source. The calls are words filed in the database; no cut-off is given here.
Columns and labels:
[1] = target: T1, Coelenterazine h 2-monooxygenase (Renilla reniformis) (UniProt P27652); assay: Inhibition of sea pansy luciferase after 20 mins by luminescence assay
T1 sequence (whole entry): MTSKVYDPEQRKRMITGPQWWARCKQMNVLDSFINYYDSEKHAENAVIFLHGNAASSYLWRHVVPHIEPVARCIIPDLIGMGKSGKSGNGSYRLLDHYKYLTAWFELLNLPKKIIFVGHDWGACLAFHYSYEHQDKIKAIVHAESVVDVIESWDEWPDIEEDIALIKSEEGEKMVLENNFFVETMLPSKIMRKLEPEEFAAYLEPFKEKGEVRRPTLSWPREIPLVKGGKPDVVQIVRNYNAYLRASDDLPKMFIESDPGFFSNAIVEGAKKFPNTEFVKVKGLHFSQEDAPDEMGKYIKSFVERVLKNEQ

[2] = Cytotoxicity against human U87 cells assessed as cell viability at 10 uM after 6 hrs by propidium iodide staining-based fluorescence assay; conditions: u-87mg atcc
[3] = target: Luciferin 4-monooxygenase (Photinus pyralis) (UniProt P08659); assay: Inhibition of recombinant firefly luciferase activity expressed in U87 cells at 10 uM after 48 hrs; type: cell-based; conditions: U-87MG ATCC
Sequence of Luciferin 4-monooxygenase (Photinus pyralis) (P08659 whole entry): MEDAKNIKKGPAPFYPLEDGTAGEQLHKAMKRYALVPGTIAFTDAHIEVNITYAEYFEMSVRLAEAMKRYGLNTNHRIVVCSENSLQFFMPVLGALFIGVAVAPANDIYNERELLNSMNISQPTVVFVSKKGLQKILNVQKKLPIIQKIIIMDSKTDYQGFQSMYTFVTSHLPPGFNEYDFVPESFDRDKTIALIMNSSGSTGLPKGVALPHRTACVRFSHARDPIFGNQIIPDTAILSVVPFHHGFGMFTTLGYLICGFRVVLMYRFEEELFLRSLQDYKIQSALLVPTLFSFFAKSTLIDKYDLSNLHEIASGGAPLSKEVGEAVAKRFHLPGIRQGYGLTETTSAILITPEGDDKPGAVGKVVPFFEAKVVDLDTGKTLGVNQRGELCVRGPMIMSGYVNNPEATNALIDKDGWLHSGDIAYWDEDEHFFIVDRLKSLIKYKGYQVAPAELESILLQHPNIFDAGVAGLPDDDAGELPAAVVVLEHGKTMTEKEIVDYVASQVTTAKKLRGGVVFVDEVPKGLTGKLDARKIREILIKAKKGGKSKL

[4] = target: Luciferin 4-monooxygenase (Photinus pyralis) (UniProt P08659); assay: Inhibition of recombinant firefly luciferase activity expressed in U87 cells at 10 uM after 2 mins; type: cell-based; conditions: U-87MG ATCC
[5] = target: Luciferin 4-monooxygenase (Photinus pyralis) (UniProt P08659); assay: Reversible inhibition of recombinant firefly luciferase incubated for 30 mins measured post compound wash-out by luminescence assay
[6] = target: Luciferin 4-monooxygenase (Photinus pyralis) (UniProt P08659); assay: Noncompetitive inhibition of recombinant firefly luciferase using luciferin as substrate at 1 to 100 nM after 30 min by Michaelis-Menten plot analysis
[7] = target: Luciferin 4-monooxygenase (Photinus pyralis) (UniProt P08659); assay: Noncompetitive inhibition of recombinant firefly luciferase using ATP as substrate at 1 to 100 nM after 30 mins by Michaelis-Menten plot analysis
[8] = target: Luciferin 4-monooxygenase (Photinus pyralis) (UniProt P08659); assay: Inhibition of recombinant firefly luciferase at 10 uM after 20 mins by luminescence assay
[9] = target: Luciferin 4-monooxygenase (Photinus pyralis) (UniProt P08659); assay: Inhibition of recombinant firefly luciferase at 1 nM after 20 mins by luminescence assay
[10] = target: Luciferin 4-monooxygenase (Photinus pyralis, UniProt P08659); assay: Inhibition of recombinant firefly luciferase after 20 mins by luminescence assay
Sequence of Luciferin 4-monooxygenase (P08659 whole entry): as above

inhibition [1]: inactive
inhibition [3]: Active
inhibition [4]: Active
inhibition [5]: Active
inhibition [6]: Active
inhibition [7]: Active
inhibition [8]: 99.8%
inhibition [9]: 72.8%
IC50 [10]: 0.257 nM
SMILES: Clc1ccc(C2=NO[C@H](Cc3ccccc3)C2)cc1
Activity [2]: Non-toxic

Reference: ChEMBL document CHEMBL2321784, “Discovery of 5-benzyl-3-phenyl-4,5-dihydroisoxazoles and 5-benzyl-3-phenyl-1,4,2-dioxazoles as potent firefly luciferase inhibitors” (J Med Chem, 2013)
